#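 These data come from cells grown in 96-well plates and exposed to compound for 48 hours at five concentrations. At the TGI there is no net growth.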
# Experiments:
# Assay in all cases: NCI anticancer screen, dose series, 48 h
# MALME-3M melanoma = test system: MALME-3M melanoma
# HCT-15 colon = test system: HCT-15 colon
# BT-549 breast = test system: BT-549 breast
# OVCAR-8 ovarian = test system: OVCAR-8 ovarian
# T-47D breast = test system: T-47D breast
# HOP-62 NSCLC = test system: HOP-62 NSCLC
# EKVX NSCLC = test system: EKVX NSCLC
# MDA-MB-435 = test system: MDA-MB-435
# NCI/ADR-RES ovarian = test system: NCI/ADR-RES ovarian
# SK-OV-3 ovarian = test system: SK-OV-3 ovarian
# NCI-H522 lung = test system: NCI-H522 lung
# RXF 393 renal = test system: RXF 393 renal
# TK-10 renal = test system: TK-10 renal
# OVCAR-3 ovarian = test system: OVCAR-3 ovarian
# LOX IMVI melanoma = test system: LOX IMVI melanoma
# M14 melanoma = test system: M14 melanoma
# IGROV1 ovarian = test system: IGROV1 ovarian
# OVCAR-5 ovarian = test system: OVCAR-5 ovarian
# HCC-2998 colon = test system: HCC-2998 colon
# KM12 colon = test system: KM12 colon
# SF-539 CNS = test system: SF-539 CNS
# SF-295 CNS = test system: SF-295 CNS
# HT29 colon = test system: HT29 colon
# UO-31 renal = test system: UO-31 renal
# A498 renal = test system: A498 renal
# 786-0 renal = test system: 786-0 renal
# COLO 205 colon = test system: COLO 205 colon
# ACHN renal = test system: ACHN renal
# SK-MEL-28 melanoma = test system: SK-MEL-28 melanoma
# MOLT-4 leukemia = test system: MOLT-4 leukemia
# HOP-92 NSCLC = test system: HOP-92 NSCLC
# SNB-75 CNS = test system: SNB-75 CNS
# MDA-MB-231 breast = test system: MDA-MB-231 breast
# A549 NSCLC = test system: A549 NSCLC
# CCRF-CEM leukemia = test system: CCRF-CEM leukemia
# HL-60(TB) leukemia = test system: HL-60(TB) leukemia
# SR leukemia = test system: SR leukemia
# SK-MEL-2 melanoma = test system: SK-MEL-2 melanoma
# DU-145 prostate = test system: DU-145 prostate
# SN12C renal = test system: SN12C renal
# NCI-H460 lung = test system: NCI-H460 lung
# HS 578T breast = test system: HS 578T breast
# SF-268 CNS = test system: SF-268 CNS
# UACC-62 melanoma = test system: UACC-62 melanoma
# PC-3 prostate = test system: PC-3 prostate
# SK-MEL-5 melanoma = test system: SK-MEL-5 melanoma
# SW-620 colon = test system: SW-620 colon
# CAKI-1 renal = test system: CAKI-1 renal
# MCF7 breast = test system: MCF7 breast
# HCT-116 colon = test system: HCT-116 colon
# UACC-257 melanoma = test system: UACC-257 melanoma
# NCI-H23 lung = test system: NCI-H23 lung
# SNB-19 CNS = test system: SNB-19 CNS
# OVCAR-4 ovarian = test system: OVCAR-4 ovarian
smiles,measurement,setting,value
Cc1sc2nc(-c3ccc(Cl)c([N+](=O)[O-])c3)c(/C=N/N=C(N)N)n2c1C,TGI,MALME-3M melanoma,3.68 µM
same,TGI,HCT-15 colon,2.65 µM
same,TGI,BT-549 breast,3.07 µM
same,TGI,OVCAR-8 ovarian,2.03 µM
same,TGI,T-47D breast,4.76 µM
same,TGI,HOP-62 NSCLC,1.7 µM
same,TGI,EKVX NSCLC,3.14 µM
same,TGI,MDA-MB-435,3.11 µM
same,TGI,NCI/ADR-RES ovarian,6.59 µM
same,TGI,SK-OV-3 ovarian,3.13 µM
same,TGI,NCI-H522 lung,3.34 µM
same,TGI,RXF 393 renal,3.13 µM
same,TGI,TK-10 renal,3.2 µM
same,TGI,OVCAR-3 ovarian,3.5 µM
same,TGI,LOX IMVI melanoma,2.44 µM
same,TGI,M14 melanoma,3.29 µM
same,TGI,IGROV1 ovarian,2.44 µM
same,TGI,OVCAR-5 ovarian,2.93 µM
same,TGI,HCC-2998 colon,2.64 µM
same,TGI,KM12 colon,1.87 µM
same,TGI,SF-539 CNS,2.99 µM
same,TGI,SF-295 CNS,3.4 µM
same,TGI,HT29 colon,2.63 µM
same,TGI,UO-31 renal,3.07 µM
same,TGI,A498 renal,3.06 µM
same,TGI,786-0 renal,1.92 µM
same,TGI,COLO 205 colon,1.31 µM
same,TGI,ACHN renal,2.77 µM
same,TGI,SK-MEL-28 melanoma,2.18 µM
O=C1c2ccccc2NC(=O)C2C1C(c1ccccc1)CC2(O)c1ccccc1 (stereo not given),TGI,MALME-3M melanoma,> 100 µM
same,TGI,HCT-15 colon,> 100 µM
same,TGI,OVCAR-8 ovarian,> 100 µM
same,TGI,T-47D breast,> 100 µM
same,TGI,HOP-62 NSCLC,> 100 µM
same,TGI,EKVX NSCLC,> 100 µM
same,TGI,MOLT-4 leukemia,71.5 µM
same,TGI,MDA-MB-435,> 100 µM
same,TGI,HOP-92 NSCLC,67 µM
same,TGI,NCI/ADR-RES ovarian,> 100 µM
same,TGI,SK-OV-3 ovarian,> 100 µM
same,TGI,SNB-75 CNS,0.0677 µM
same,TGI,RXF 393 renal,> 100 µM
same,TGI,TK-10 renal,99.7 µM
same,TGI,OVCAR-3 ovarian,> 100 µM
same,TGI,LOX IMVI melanoma,> 100 µM
same,TGI,MDA-MB-231 breast,> 100 µM
same,TGI,M14 melanoma,> 100 µM
same,TGI,A549 NSCLC,> 100 µM
same,TGI,CCRF-CEM leukemia,> 100 µM
same,TGI,HL-60(TB) leukemia,> 100 µM
same,TGI,SR leukemia,> 100 µM
same,TGI,IGROV1 ovarian,> 100 µM
same,TGI,SK-MEL-2 melanoma,> 100 µM
same,TGI,OVCAR-5 ovarian,> 100 µM
same,TGI,DU-145 prostate,> 100 µM
same,TGI,HCC-2998 colon,> 100 µM
same,TGI,SN12C renal,> 100 µM
same,TGI,NCI-H460 lung,> 100 µM
same,TGI,KM12 colon,> 100 µM
same,TGI,SF-539 CNS,> 100 µM
same,TGI,HS 578T breast,98.3 µM
same,TGI,SF-295 CNS,> 100 µM
same,TGI,SF-268 CNS,> 100 µM
same,TGI,HT29 colon,> 100 µM
same,TGI,UACC-62 melanoma,> 100 µM
same,TGI,PC-3 prostate,74.3 µM
same,TGI,SK-MEL-5 melanoma,> 100 µM
same,TGI,SW-620 colon,> 100 µM
same,TGI,A498 renal,> 100 µM
same,TGI,CAKI-1 renal,> 100 µM
same,TGI,786-0 renal,> 100 µM
same,TGI,COLO 205 colon,36.9 µM
same,TGI,MCF7 breast,> 100 µM
same,TGI,HCT-116 colon,37.8 µM
same,TGI,ACHN renal,> 100 µM
same,TGI,UACC-257 melanoma,> 100 µM
same,TGI,NCI-H23 lung,> 100 µM
same,TGI,SNB-19 CNS,> 100 µM
same,TGI,SK-MEL-28 melanoma,> 100 µM
same,TGI,OVCAR-4 ovarian,> 100 µM

# Source: PubChem BioAssay (NCI)
